Measurements taken from patent US10335422B2, “Small molecules that promote skin regeneration” (International Stem Cell Corporation, priority 2013, dated 2019).
Counter-ions that a name gives are not always drawn.

Assays:
TGFβ1 = test: High-throughput screening assay for TGFβ1 production (ELISA of hDF supernatants); type: cell-based, human; conditions: 3 days of treatment
Experimental: (§1) For TGFβ1 production assay hDFs were plated into 96 well Clear tissue-culture treated plates (Falcon) at 19,000 cells/well in DMEM (Gibco) 1× N2/B27 Supplement (Invitrogen). […] After 3 days of treatment, supernatants were collected and analyzed for TGFβ1 content using TGFβ1 Human ELISA Kit (Abcam) and with BioTek Synergy 2 Multi-Detection Microplate Reader (see FIG. 1).

[1] = system: human dermal fibroblast (hDF); test: High-throughput proliferation screening assay of human dermal fibroblasts; type: cell-based; conditions: at concentration of 200 nM; 3 days of treatment; DAPI imaging
Experimental: For the proliferation assay, human dermal fibroblast (hDF) were plated into 96 well Black/Clear bottom tissue-culture treated plates (Corning) at 1,000 cells/well in DMEM (Gibco) 15% FBS (HyClone). […] After 3 days of treatment, cells were fixed and stained with DAPI and analyzed using Roche Cellavista High-Content Imaging System (see FIG. 1).

FGF7 = test: High-throughput screening assay for FGF7 production (ELISA of hDF supernatants); type: cell-based, human; conditions: at concentration of 25 μM; 3 days of treatment
Experimental: as §1, with “FGF7” for “TGFβ1”

Collagen Type 1 = test: High-throughput screening assay for Collagen Type 1 production (Procollagen Type 1C-Peptide EIA of hDF supernatants); type: cell-based, human; conditions: 3 days of treatment
EGF = test: High-throughput screening assay for EGF production (ELISA of hDF supernatants); type: cell-based, human; conditions: 3 days of treatment
Experimental: as §1, with “EGF” for “TGFβ1”

[2] = at concentrations of 25 and 12.5 μM

Proxyfan Oxalate was tested. Which “production level of TGFβ1 in hDFs” value (TGFβ1; at concentration of 24 nM) did it give?
Its value is “induced the highest production level”.

With `CN1CC(=O)NC1=NC(=O)Nc1cccc(Cl)c1` [Fenobam] as the compound, how does the “proliferation level in hDFs” value [1] read?
Its value is “induced the highest proliferation level”.

How did the “production level of FGF7 in hDFs” value (FGF7) turn out when `CCCCC[C@H](O)/C=C/[C@H]1[C@H](O)CC(=O)[C@@H]1C/C=C\CCCC(=O)O` [Prostaglandin E2] was run?
The value was “induced the highest production level”.

For `O=C1CCc2cc(OCCCCc3nnnn3C3CCCCC3)ccc2N1` [Cilostazol], which “production level of Collagen Type 1 in hDFs” value (Collagen Type 1; at concentration of 6.25 μM) is on record?
Its value is “induced the highest production level”.

For `O=C(O)c1ccc2cc(-c3ccc(O)c(C45CC6CC(CC(C6)C4)C5)c3)ccc2c1` [CD 437], which “production level of EGF in hDFs” value (EGF; [2]) is on record?
The value was “induced the highest production level”.

How did the “production level of Collagen Type 1 in hDFs” value (Collagen Type 1; at concentration of 390 nM) turn out when `OCCN(CCO)c1nc(N2CCCCC2)c2nc(N(CCO)CCO)nc(N3CCCCC3)c2n1` [Dipyridamole] was run?
Its value is “induced the highest production level”.

`O=C(O)c1ccc(-c2ccc3cc(O)c(C45CC6CC(CC(C6)C4)C5)cc3c2)cc1` [CD 1530] was tested. Which “production level of EGF in hDFs” value (EGF; [2]) did it give?
Its value is “induced the highest production level”.

How did the “proliferation level in hDFs” value [1] turn out when `Cl.Cl.Nc1ncnc2nc(-c3ccc(N4CCOCC4)nc3)cc(-c3cccc(Br)c3)c12` [ABT702 dihydrochloride] was run?
Its value is “induced the highest proliferation level”.

How did the “production level of Collagen Type 1 in hDFs” value (Collagen Type 1; at concentration of 780 nM) turn out when `CN1CCC[C@@H]1CCO[C@](C)(c1ccccc1)c1ccc(Cl)cc1` [Clemastine fumarate] was run?
Its value is “induced the highest production level”.

`CS(=O)(=O)O.N=C(N)SCCc1ccc(OCc2ccc([N+](=O)[O-])cc2)cc1` [KB-R7943 mesylate] was tested. Which “production level of TGFβ1 in hDFs” value (TGFβ1; at concentration of 1.6 μM) did it give?
The value was “induced the highest production level”.

`CN(C)C(=O)C(=O)c1cn(C)c2cc(Cl)c(C(=O)N3CCC(Cc4ccc(F)cc4)CC3)cc12` [SX 011] was tested. Which “proliferation level in hDFs” value [1] did it give?
The value was “induced the highest proliferation level”.

For `Cc1cc(C)c(S(=O)(=O)Nc2cccc(C(F)(F)F)c2)c(C)c1` [m-3M3FBS], which “production level of TGFβ1 in hDFs” value (TGFβ1; at concentration of 24 nM) is on record?
The value was “induced the highest production level”.

Which “production level of EGF in hDFs” value (EGF; at concentration of 12.5 (unit not given)) does the source give for PSB 06126 here?
Its value is “induced the highest production level”.

How did the “production level of EGF in hDFs” value (EGF; at concentrations of 12.5 μM) turn out when `CN1Cc2ccccc2[C@@H]2c3cccc4[nH]cc(c34)C[C@H]21` [CY 208-243] was run?
Its value is “induced the highest production level”.
